According to patent US20110093959A1, “CRYPTOTIS PARVA SCREENING MODEL FOR ANTIEMETIC POTENTIAL” (priority 2008, published 2011):
Several values for one entry are separate records, joined by “and”; a condition that tells them apart may be missing. Equal values may be shown once.

Assays:
Type in all cases: in vivo, Cryptotis parva
Fos = Fos expression in the dorsal vagal complex resulting from CIS-induced vomiting
Procedure: After the appropriate time period for acute or delayed phase vomiting, shrews were anesthetized with a lethal dose of pentobarbital (100 mg/kg) and perfused transcardially via blunted needle with a peristaltic pump. The shrew was perfused with ice cold 4% paraformaldehyde and 5% picric acid in pH 7.4, 0.1 M phosphate buffer (10 min). Brains were removed and stored in 30% sucrose in 0.1 M PB overnight, then embedded in blocks of 12% gelatin in 30% sucrose/PB. The blocks were postfixed for 3 hr in 2% paraformaldehyde/PB, then rinsed and immersed in 30% sucrose/PB until they sank (usually 1-2 hr). The brain block was cut sagittally on a freezing benchtop microtome (Leica) at 30 μm into 5 series, and stored in PB with 0.03% sodium azide.
Immunolabeling was accomplished by blocking a free-floating series with 10% normal horse serum (NHS) and 3% hydrogen peroxide in PB with 0.3% Tri-ton X-100 (TX) for 30 min. After rinsing in PB, tissue was put in sheep anti-Fos polyclonal antibody (Chemicon/Millipore, Temecula, Calif.; 1:600), with 5% NHS and 0.3% TX in PB, and incubated for about 42 hr at room temperature (RT) with gentle shaking. After rinsing in PB, the tissue was placed in biotinylated donkey anti-sheep IgG secondary antibody (Jackson Immunoresearch, West Grove, Pa.; 1:600) diluted in the same diluent described for the primary antibody, and the tissue incubated at RT with shaking for 75 min Tissue was then rinsed and incubated for 60 min in HRP-conjugated avidin-biotin complex (Vector Labs, Burlingame, Calif.; Vectastain kit diluted 1:2) in PB. Tissue was then rinsed twice in PB, then once in imidazole-acetate buffer (0.1 M, pH 7.4), then reacted for 6 min in 0.0006% hydrogen peroxide with 2% nickel ammonium sulfate-enhanced diaminobenzidine (DAB, 0.05% in 0.1 M imidazole-acetate buffer). All reagents for DAB processing were purchased from Sigma-Aldrich. […]

[1] = system: CIS-induced vomiting in the Least Shrew; assay: THC and SR141716A on CIS (10 mg/kg)-induced vomiting, acute and delayed phase; details: CIS 10 mg/kg i.p., Δ^9-THC 2.5 mg/kg i.p., SR141716A 2 mg/kg i.p.
[2] = system: CIS-induced emesis in the Least Shrew; assay: Tropisetron, Δ^9-THC and dexamethasone alone or in combination against CIS (20 mg/kg)-induced emesis, 60 min
Procedure: Briefly, all animals were randomly divided into two groups. On the test day, shrews were habituated to the laboratory environment for at least 1 hr prior to experimentation. […] All drugs were administered at a volume of 0.1 ml/10 g body weight. Immediately following the second injection, each shrew was placed in the observation cage, and both the number of animals vomiting per group and the frequency of vomiting (oral ejections of food or liquid) were recorded for the next 60 min
Poisson regression and logistic regression analyses were employed for two-way analysis of vomiting frequency and protection from emesis, respectively. […] Data regarding the frequency of emesis were analyzed by the Kruskal-Wallis nonparametric one-way analysis of variance (ANOVA), and post hoc analysis by Dunn's multiple comparisons test. The incidence of emesis (number of animals vomiting) was analyzed by Fisher's exact test to determine whether there were differences between groups, and when appropriate, pairwise comparisons were also made. A p value of<0.05 was necessary to achieve statistical significance.

[3] = 1 mg/kg i.p., administered alone
[4] = 5 mg/kg i.p., administered alone
[5] = Δ^9-THC 1 mg/kg with 0.1 mg/kg tropisetron
[6] = Δ^9-THC 5 mg/kg with 0.025 mg/kg tropisetron
[7] = Δ^9-THC 5 mg/kg with 0.1 mg/kg tropisetron
[8] = Δ^9-THC 5 mg/kg with 0.25 mg/kg tropisetron

**Q.** How did the “number of Fos-immunopositive nuclei vs vehicle injections” value (Fos; acute phase of CIV, NTS, AP and DMNX) turn out when CCCCCc1cc(O)c2c(c1)OC(C)(C)[C@@H]1CCC(C)=C[C@@H]21 [Δ^9-THC, Δ^9-tetrahydrocannabinol] was run?
**A.** significantly (P<0.05) reduced

**Q.** What about the “number of Fos-immunopositive nuclei vs vehicle-injected animals” value (Fos; delayed phase, NTS and DMNX) of the same compound?
**A.** significantly fewer

**Q.** And the “Number vomited per total in group” value ([1]; Acute phase)?
**A.** 1/8

**Q.** And the “Number vomited per total in group” value ([1]; Delayed phase)?
**A.** 2/9

**Q.** And the “reduction in frequency of CIS-induced emesis” value ([2]; 0.25 mg/kg i.p., administered alone)?
**A.** 59.3%

**Q.** What about the “reduction in frequency of CIS-induced emesis” value ([2]; 0.5 mg/kg i.p., administered alone) of the same compound?
**A.** 66.7%

**Q.** What about the “reduction in frequency of CIS-induced emesis” value [2, 3] of the same compound?
**A.** 83.7%

**Q.** And the “reduction in percentage of shrews vomiting in response to CIS” value (from here on “reduction in percentage”) [2, 3]?
**A.** 64%

**Q.** What about the “reduction in percentage” value ([2]; 2.5 mg/kg i.p., administered alone) of the same compound?
**A.** 83.3% and 83%

**Q.** And the “reduction in frequency of CIS-induced emesis” value [2, 4]?
**A.** 96.7%

**Q.** What about the “reduction in percentage” value [2, 4] of the same compound?
**A.** 92% and 91.6%

**Q.** And the “reduction in percentage” value ([2]; 10 mg/kg i.p., administered alone)?
**A.** 100%

**Q.** And the “additive or synergistic effect on percentage of animals vomiting” value ([2]; tested combinations of Δ^9-THC and tropisetron)?
**A.** no additive or synergistic antiemetic effects

**Q.** What about the “reduction in frequency of vomiting” value ([2]; Δ^9-THC 0.25 mg/kg coadministered with 5 mg/kg DEX) of the same compound?
**A.** 55.5%

**Q.** What about the “reduction in percentage” value ([2]; Δ^9-THC 0.25 mg/kg in shrews pretreated with 5 mg/kg DEX) of the same compound?
**A.** 42%

**Q.** And the “reduction in frequency of CIS-induced emesis” value ([2]; Δ^9-THC 0.25 mg/kg with 0.025 mg/kg tropisetron)?
**A.** 72.6%

**Q.** What about the “reduction in frequency of CIS-induced emesis” value ([2]; Δ^9-THC 0.25 mg/kg with 0.1 mg/kg tropisetron) of the same compound?
**A.** 69.7%

**Q.** And the “reduction in frequency of CIS-induced emesis” value ([2]; Δ^9-THC 0.5 mg/kg with 0.025 mg/kg tropisetron)?
**A.** 56.1%

**Q.** What about the “reduction in frequency of CIS-induced emesis” value ([2]; Δ^9-THC 0.5 mg/kg with 0.1 mg/kg tropisetron) of the same compound?
**A.** 74.6%

**Q.** What about the “reduction in frequency of CIS-induced emesis” value ([2]; Δ^9-THC 1 mg/kg with 0.025 mg/kg tropisetron) of the same compound?
**A.** 61.6%

**Q.** And the “reduction in frequency of CIS-induced emesis” value [2, 5]?
**A.** 88%

**Q.** And the “reduction in number of shrews vomiting” value [2, 5]?
**A.** 77%

**Q.** What about the “reduction in frequency of CIS-induced emesis” value ([2]; Δ^9-THC 1 mg/kg with 0.25 mg/kg tropisetron) of the same compound?
**A.** 91%

**Q.** And the “reduction in percentage” value ([2]; Δ^9-THC 2.5 mg/kg with DEX 0.25 mg/kg)?
**A.** 77%

**Q.** What about the “reduction in percentage” value ([2]; Δ^9-THC 2.5 mg/kg with DEX 1 mg/kg) of the same compound?
**A.** 92%

**Q.** And the “reduction in percentage” value ([2]; Δ^9-THC 2.5 mg/kg with DEX 5 mg/kg)?
**A.** 79%

**Q.** What about the “reduction in percentage” value ([2]; Δ^9-THC 2.5 mg/kg with DEX 10 mg/kg) of the same compound?
**A.** 77%

**Q.** What about the “reduction in percentage” value ([2]; Δ^9-THC 2.5 mg/kg with DEX 20 mg/kg) of the same compound?
**A.** 50%

**Q.** What about the “reduction in frequency of CIS-induced emesis” value [2, 6] of the same compound?
**A.** 86.3%

**Q.** And the “reduction in percentage” value [2, 6]?
**A.** 75%

**Q.** And the “reduction in frequency of CIS-induced emesis” value [2, 7]?
**A.** 97.7%

**Q.** What about the “reduction in percentage” value [2, 7] of the same compound?
**A.** 88%

**Q.** What about the “reduction in frequency of CIS-induced emesis” value [2, 8] of the same compound?
**A.** 100%

**Q.** What about the “reduction in percentage” value [2, 8] of the same compound?
**A.** 100%

**Q.** And the “reduction in percentage” value ([2]; Δ^9-THC 5 mg/kg with DEX 0.25 mg/kg)?
**A.** 83%

**Q.** And the “reduction in percentage” value ([2]; Δ^9-THC 5 mg/kg with DEX 1 mg/kg)?
**A.** 92%

**Q.** And the “reduction in percentage” value ([2]; Δ^9-THC 5 mg/kg with DEX 5 mg/kg)?
**A.** 77%

**Q.** What about the “reduction in percentage” value ([2]; Δ^9-THC 5 mg/kg with DEX 10 mg/kg) of the same compound?
**A.** 92%

**Q.** What about the “reduction in percentage” value ([2]; Δ^9-THC 5 mg/kg with DEX 20 mg/kg) of the same compound?
**A.** 77%

**Q.** And the “reduction in percentage” value ([2]; Δ^9-THC 10 mg/kg with DEX 0.25 mg/kg)?
**A.** 92%

**Q.** What about the “reduction in percentage” value ([2]; Δ^9-THC 10 mg/kg with DEX 1 mg/kg) of the same compound?
**A.** 83%

**Q.** And the “reduction in percentage” value ([2]; Δ^9-THC 10 mg/kg with DEX 5 mg/kg)?
**A.** 67%

**Q.** What about the “reduction in percentage” value ([2]; Δ^9-THC 10 mg/kg with DEX 10 mg/kg) of the same compound?
**A.** 92%

**Q.** What about the “reduction in percentage” value ([2]; Δ^9-THC 10 mg/kg with DEX 20 mg/kg) of the same compound?
**A.** 75%

**Q.** And the “combination efficacy in reducing the frequency of emesis” value ([2]; Δ^9-THC 0.25 and 0.5 mg/kg combined with tropisetron 0.025 and 0.1 mg/kg)?
**A.** significantly greater additive efficacy

**Q.** And the “effect on frequency of emesis” value ([2]; Δ^9-THC combined with 1 mg/kg or 5 mg/kg tropisetron)?
**A.** failed to produce significant reductions

**Q.** And the “additive or synergistic antiemetic activity” value ([2]; Δ^9-THC combined with DEX, at the doses tested)?
**A.** no significant additive or synergistic antiemetic activity
